Common to all, as to assay: DTP human tumour cell line panel, 48 h
The test system of test [1] is SNB-75 CNS.
Test [2] has as its system SF-268 CNS.
In test [3] the test system is NCI/ADR-RES ovarian.
Test [4] relates to TK-10 renal.
Test [5] relates to SNB-19 CNS.
The test system of test [6] is NCI-H522 lung.
Test [7] has as its system 786-0 renal.
Test [8] has as its system HOP-62 NSCLC.
For test [9], the system named is MDA-MB-435.
The subject of test [10] is COLO 205 colon.

Our source for the GI50 and TGI values is PubChem BioAssay (NCI).

Values joined by “and” are separate entries in the source; they are usually repeats but may differ in a detail not shown here. Equal entries are not always repeated.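 48-hour exposure; five concentrations; linearly interpolated endpoints. Abbreviation: GI50, concentration required for 50% inhibition of growth. Definition used: TGI = concentration required for complete inhibition of growth.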

As a reminder, the GI50 is the concentration giving 50% growth inhibition. As a reminder, the TGI is the concentration at which net growth stops. Higher therefore signals less potent growth arrest. In the case of `CC1(C)N=C(N)N=C(N)N1c1ccc(Cl)cc1`, the GI50 in test [1] was 8.16 µM; in test [2] it was 0.688 µM; in test [3] it was > 100 µM; in test [4] it was 9.9 µM; in test [5] it was 16.7 µM; in test [6] it was 14.6 µM. Moreover, the GI50 in test [7] was 0.414 µM; in test [8], 3.54 µM; in test [9], 1.18 µM; in test [10] it was 21.4 µM. For the same compound, the TGI in test [1], in test [2], in test [3], in [4], in [5] and in test [6] was > 100 µM in each case. Also, the TGI in test [7], in test [8], in test [9] and in test [10] was > 100 µM in each case.

Turning to `COC1=C(C)C(=O)c2c(c(CCCl)c3n2CCC3OC(C)=O)C1=O` (stereo not given), the GI50 in test [1] is 0.141 µM; in test [2] it was 0.31 µM; in test [3], 0.447 µM; in test [4] it was 0.26 µM; in [5] it was 0.272 µM; in test [6], 0.192 µM. Besides, the GI50 in test [7] is 0.287 µM; in test [8], 0.122 µM; in test [9] it was 0.523 µM; in [10], 0.136 µM. The TGI in test [1] is 0.376 µM; in test [2] it was 17.6 µM; in [3] it was 8.47 µM; in test [4] it was 0.626 µM; in test [5], 18.2 µM; in [6], 0.85 µM. Also, the TGI turned out to be 1.24 µM in [7], 0.793 µM in test [8], 1.97 µM in test [9] and 0.399 µM in [10].

As for `CC(=O)CC/C=C(\C)[C@H](O)[C@H](C)C(=O)O[C@H]1C[C@H](C)C=C2C=C[C@@]3(C)O[C@@H](O)CC(=O)[C@]3(C)[C@H]21`, the GI50 in test [1] is 0.686 µM; in [2], 0.612 µM; in test [3] it was 1.44 µM; in [4], 0.942 µM; in test [5] it was 0.331 µM; in test [6], 0.566 µM. In addition, the GI50 in [7] is 0.43 µM; in test [8], 0.492 µM; in test [9], 0.508 µM; in test [10], 0.425 µM. Further, the TGI in test [1] is 2.61 µM; in test [2] it was 5.63 µM; in [3], 11.7 µM; in test [4], 5.5 µM; in test [5] it was 2.49 µM; in [6] it was 4.19 µM. The TGI stood at 3.29 µM in test [7], 3.63 µM in test [8], 2.09 µM in test [9] and 2.03 µM in test [10].

In the case of `CCCCCCn1c(SC)nc(COC(=O)NC)c1COC(=O)NC`, the TGI in test [1] was found to be 27.8 µM; in [2], 30.6 µM; in [3], 69.3 µM; in test [4], 31.2 µM; in test [5], 29.8 µM; in test [6], 23.5 µM. Further, the concentration for total growth inhibition (TGI) in test [7] amounted to 30.3 µM; in [8], 37.1 µM; in test [9] it was 41.9 µM; in test [10], 29.2 µM.

Take `CC(C)(C)CC(C)(C)c1ccc(O)c(Cc2ccc(Cl)cc2Cl)c1`: the GI50 in [1] was 1.69 µM; in test [2] it was 1.6 µM; in test [3] it was 1.65 µM; in [4] it was 1.54 µM; in test [5], 1.82 µM; in test [6], 1.37 µM. For the same compound, the GI50 in test [7] was 1.65 µM; in [8], 1.42 µM; in test [9], 1.65 µM; in test [10] it was 1.77 µM. Further, the TGI was found to be 3.08 µM in test [1]; 2.95 µM in test [2]; 3.05 µM in [3]; 2.87 µM in test [4]; 3.21 µM in test [5]; 2.7 µM in test [6]. Besides, the TGI in test [7] was 3.1 µM; in test [8] it was 2.72 µM; in test [9], 3.01 µM; in [10], 3.15 µM.

In the case of `C=CC(=O)N1C[C@@H]2CCOc3c(Cl)c(-c4c(O)cccc4F)c(F)c4ncnc(c34)N2C[C@H]1C`, the GI50 in test [1] is 10.8 µM; in [2], 12.5 µM; in test [3] it was 17.4 µM; in test [4], 16.1 µM; in test [5] it was 14.6 µM; in test [6], 14.2 µM. For the same compound, the GI50 in test [7] is 14.7 µM; in test [8] it was 0.0507 µM; in [9], 11.8 µM; in test [10] it was 17.6 µM. Also, the TGI in test [1] is 23.5 µM; in [2], 29.1 µM; in test [3] it was 62.6 µM; in test [4], 33.3 µM; in test [5] it was 28 µM; in [6], 30.9 µM. In addition, the total growth inhibition concentration (TGI) was determined as 29.4 µM in test [7], 25.5 µM in test [8], 29.6 µM in test [9] and 35.9 µM in test [10].

`O=C(c1ccc(C(F)(F)F)c(Cl)c1)N(Cc1ccc(Cl)cc1)c1ccc(-c2cc(C(F)(F)F)[nH]n2)c(O)c1`: the GI50 was 0.989 µM in test [1]; 1.32 µM in test [2]; 1.11 µM in [3]; 1.41 µM in [4]; 1.61 µM in test [5]; 0.893 µM in test [6]. Also, the GI50 in test [7] was 0.895 µM; in test [8], 1.02 µM; in test [9], 1.25 µM; in test [10], 0.865 µM. For the same compound, the TGI was found to be 3.24 µM in [1]; 5.19 µM in [2]; 2.99 µM in test [3]; 3.99 µM in test [4]; 6.35 µM in test [5]; 3.31 µM in [6]. The TGI in [7] is 1.7 µM; in test [8], 2.33 µM; in [9], 3.66 µM; in [10], 1.64 µM.

Consider `CC(C)(C)c1cc(NC(=O)Nc2ccc(-c3cn4c(n3)sc3cc(OCCN5CCOCC5)ccc34)cc2)no1`, for which the GI50 was 1.41 µM and 2.38 µM and 1.94 µM in [1]; 3.17 µM and 2.19 µM and 5.09 µM in test [2]; 2.81 µM and 4.61 µM and 7.95 µM in [3]; 11.7 µM and 4.12 µM and > 10 µM in [4]; 3.46 µM and 1.71 µM and 4.26 µM in [5]; 0.9 µM and 0.937 µM and 3.32 µM in [6]. Further, the GI50 in [7] is 2.85 µM and 0.616 µM and 4.06 µM; in [8], 1.88 µM and 1.19 µM and 2.29 µM; in [9], 6.85 µM and 4.32 µM and 7.3 µM; in test [10], 7.75 µM and 1.21 µM and 1.76 µM. The total growth inhibition concentration (TGI) in test [1] is 6.52 µM and 19.1 µM and > 10 µM; in test [2], 14.4 µM and 14.8 µM and > 10 µM; in test [3] it was 24.7 µM and 19.2 µM and > 10 µM; in [4] it was 24.1 µM and 17.3 µM and > 10 µM; in [5] it was 20.3 µM and 17.1 µM and > 10 µM; in [6], 15.5 µM and 13.5 µM and > 10 µM. For the same compound, the TGI in test [7] is 15.8 µM and 3.29 µM and > 10 µM; in test [8], 6.57 µM and 10 µM and > 10 µM; in [9] it was 27.7 µM and 21.2 µM and > 10 µM; in test [10] it was > 45.7 µM and 8.31 µM and 8.55 µM.
